Laboratory results reported in patent US6417216B1 (priority 2000, dated 2002).

Tested on: Phytophthora infestans
Assay type: in vivo
Details: neighbouring plot, mancozeb at 1600 g/ha

Substance: mancozeb
- efficacy, compared with the composition of compounds (I) and (II): about one-half
